Data published in the supplement of paper PMC10307832.

Assays:
Assay in all cases: relative viability (nuclei count vs DMSO), 5 days (fraction); higher = more cells survive
[1] = compound: O=C(c1cc(Cc2n[nH]c(=O)c3ccccc23)ccc1F)N1CCN(C(=O)C2CC2)CC1 [Olaparib] + Cc1nc(Nc2ncc(C(=O)Nc3c(C)cccc3Cl)s2)cc(N2CCN(CCO)CC2)n1 [Dasatinib] (partner 0.075 µM)
Summary of the method: (§1)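 Relative viability is defined as nuclei in treated wells over nuclei in vehicle wells. Duplicate plates were run and medians reported. Lung cancer cell lines in 1536-well plates were dosed by pin tool one day after seeding, with one drug or with a fixed anchor-drug dose plus five library-drug doses (not always all listed) in √10 steps, and nuclei were counted after 5 days.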

[2] = compound: CC(C)C[C@H](NC(=O)[C@H](CCc1ccccc1)NC(=O)CN1CCOCC1)C(=O)N[C@@H](Cc1ccccc1)C(=O)N[C@@H](CC(C)C)C(=O)[C@@]1(C)CO1 [Carfilzomib] + C[C@@H](Oc1cc(-c2cnn(C3CCNCC3)c2)cnc1N)c1c(Cl)ccc(F)c1Cl [Crizotinib] (partner 1 µM)
Summary of the method: as §1

[3] = compound: O=C(c1cc(Cc2n[nH]c(=O)c3ccccc23)ccc1F)N1CCN(C(=O)C2CC2)CC1 [Olaparib] + Nc1nc2[nH]cc(CCc3ccc(C(=O)N[C@@H](CCC(=O)O)C(=O)O)cc3)c2c(=O)[nH]1 [Pemetrexed] (partner 0.2 µM)
Summary of the method: as §1

[4] = compound: O=C(c1cc(Cc2n[nH]c(=O)c3ccccc23)ccc1F)N1CCN(C(=O)C2CC2)CC1 [Olaparib] + CC(=O)c1c(C)c2cnc(Nc3ccc(N4CCNCC4)cn3)nc2n(C2CCCC2)c1=O [Palbociclib] (partner 0.5 µM)
Summary of the method: as §1

Cell Line | relative viability ([1]; first compound 0.08 µM) | relative viability ([1]; first compound 0.253 µM) | relative viability ([1]; first compound 2.53 µM) | relative viability ([1]; first compound 8 µM) | relative viability ([2]; first compound 0.001 µM) | relative viability ([2]; first compound 0.003162 µM) | relative viability ([2]; first compound 0.01 µM) | relative viability ([2]; first compound 0.03162 µM) | relative viability ([2]; first compound 0.1 µM) | relative viability ([3]; first compound 0.08 µM) | relative viability ([3]; first compound 0.253 µM) | relative viability ([3]; first compound 2.53 µM) | relative viability ([3]; first compound 8 µM) | relative viability ([4]; first compound 0.08 µM) | relative viability ([4]; first compound 0.253 µM) | relative viability ([4]; first compound 2.53 µM) | relative viability ([4]; first compound 8 µM)
201T | 0.576 | 0.558 | 0.46 | 0.501 | 1.02 | 1.1 | 1.04 | 1.06 | 0.91 | 0.309 | 0.346 | 0.298 | 0.323 | 0.392 | 0.323 | 0.388 | 0.337
A549 | – | – | – | – | 0.802 | 0.776 | 0.743 | 0.182 | 0.0494 | – | – | – | – | – | – | – | –
A-427 | 0.793 | 0.691 | 0.586 | 0.54 | 0.837 | 0.996 | 0.862 | 0.212 | 0.122 | 0.922 | 0.947 | 0.87 | 0.73 | 0.512 | 0.488 | 0.503 | 0.415
ABC-1 | 0.639 | 0.609 | 0.586 | 0.676 | 1.15 | 0.805 | 0.385 | 0.177 | 0.172 | – | – | – | – | 0.814 | – | 0.476 | 0.862
BEN | – | 0.32 | 0.325 | 0.35 | 0.898 | 1.18 | 0.923 | 0.757 | 0.311 | 0.725 | 0.672 | 0.828 | 0.895 | 0.531 | 0.454 | 0.451 | 0.51
CAL-12T | 0.597 | 0.281 | 0.363 | 0.283 | – | 0.814 | 0.72 | 0.18 | 0.0912 | 1.48 | 1.04 | 1.16 | 0.963 | 0.0401 | 0.407 | 0.329 | 0.479
COR-L23 | 0.539 | 0.437 | 0.314 | 0.23 | 0.71 | 0.828 | 0.731 | 0.0647 | 0.0659 | 0.221 | 0.195 | 0.177 | 0.21 | 0.314 | 0.241 | 0.223 | 0.14
COR-L 105 | 0.34 | 0.403 | 0.356 | 0.288 | 0.84 | 0.743 | 0.608 | 0.262 | 0.17 | 1.31 | 1 | 0.838 | 0.914 | 0.401 | 0.409 | 0.404 | 0.398
Calu-6 | – | – | – | – | 0.747 | 0.834 | 0.811 | 0.334 | 0.0815 | – | – | – | – | – | – | – | –
ChaGo-K-1 | 0.576 | 0.577 | 0.567 | 0.445 | – | 1.2 | 1.18 | 0.634 | 0.303 | 0.266 | 0.258 | 0.261 | 0.256 | 1.03 | 0.908 | 0.908 | 0.664
EBC-1 | – | – | – | – | 0.212 | 0.18 | 0.183 | 0.131 | 0.111 | – | – | – | – | – | – | – | –
EKVX | 0.271 | 0.406 | 0.428 | 0.599 | 0.936 | 0.819 | 0.941 | 0.887 | 0.348 | 0.425 | 0.401 | 0.418 | 0.365 | 0.38 | 0.364 | 0.371 | 0.41
EMC-BAC-2 | 0.365 | 0.382 | 0.471 | 0.338 | 0.779 | 0.896 | 0.928 | 0.661 | 0.229 | 0.473 | 0.478 | 0.472 | 0.491 | 0.518 | 0.512 | 0.517 | 0.472
EPLC-272H | 0.43 | 0.293 | 0.414 | 0.338 | 0.441 | 1.07 | 0.811 | 0.11 | 0.0759 | 0.316 | 0.312 | 0.345 | 0.357 | 0.427 | 0.298 | 0.339 | 0.318
H3255 | 0.401 | 0.274 | 0.491 | 0.425 | 0.962 | 1.04 | 1.07 | 0.761 | 0.186 | 0.598 | 0.58 | 0.577 | 0.597 | 0.32 | 0.315 | 0.336 | 0.306
HARA | 0.36 | 0.286 | 0.255 | 0.237 | 1.05 | 1.06 | 1.12 | 0.0563 | 0.0555 | 0.274 | 0.251 | 0.272 | 0.232 | 0.216 | 0.268 | 0.271 | 0.276
HCC-15 | 0.659 | 0.584 | 0.655 | 0.631 | 0.765 | 0.85 | 0.844 | 0.545 | 0.185 | 0.215 | 0.224 | 0.209 | 0.221 | 0.785 | 0.659 | 0.714 | 0.722
HCC-44 | – | – | – | – | 0.811 | 0.824 | 0.866 | 0.614 | 0.149 | 0.658 | 0.619 | 0.716 | 0.748 | 0.998 | 0.884 | 0.943 | 0.969
HCC-78 | 0.451 | 0.31 | 0.426 | 0.331 | 0.323 | 0.383 | 0.351 | 0.345 | 0.144 | 0.885 | 0.886 | 0.906 | 0.908 | 0.414 | 0.424 | 0.486 | 0.464
HCC-366 | 0.484 | 0.503 | 0.498 | 0.253 | 0.396 | 0.518 | 0.674 | 0.299 | 0.016 | 0.165 | 0.195 | 0.206 | 0.271 | 0.39 | 0.263 | 0.26 | 0.168
HCC-827 | 0.27 | 0.315 | 0.387 | 0.281 | 1.02 | 0.953 | 0.985 | 0.858 | 0.271 | 0.27 | 0.275 | 0.253 | 0.261 | 0.534 | 0.494 | 0.474 | 0.387
